Several values for one entry are separate records, joined by “and”; a condition that tells them apart may be missing. Identical values can stand only once. Entries after “also recorded” stand apart in the source; their conditions may differ. Like-named read-outs stand apart in the source and are kept apart here.
Columns and labels:
[1] = target: hNav1.7 (Homo sapiens, UniProt Q15858); experiment: cell-based; format: cell-based; conditions: values quoted in text (average); read-out: hNav1.7 IC50 in the PX format
[2] = system: TTX-sensitive Nav channels in mouse DRG neuron; format: cell-based
[3] = system: male CD-1 mice; conditions: mouse, in vivo
[4] = system: male CD-1 mice; conditions: mouse, in vivo; remark: listed apart in the source
[5] = system: male Sprague-Dawley rats; format: in vivo, rat
[6] = human plasma, 37° C., incubation 0 hr
[7] = cyno plasma, 37° C., incubation 0 hr
[8] = 1 mg/kg s.c.
[9] = system: male CD-1 mice; conditions: for terminal exposure (plasma): 2 h post peptide injection
[10] = system: male Sprague-Dawley rats; conditions: 5.0 mg/kg s.c., 2 h post peptide injection
[11] = in vivo; conditions: CD-1, mouse, sc, 1 mg/kg
[12] = in vitro; conditions: human, plasma
[13] = in vitro; conditions: monkey, plasma
[14] = 0.1, 0.3 or 1.0 mg/kg s.c., 1-hour pre-treatment

hNav1.7, sequence (Q15858 whole entry): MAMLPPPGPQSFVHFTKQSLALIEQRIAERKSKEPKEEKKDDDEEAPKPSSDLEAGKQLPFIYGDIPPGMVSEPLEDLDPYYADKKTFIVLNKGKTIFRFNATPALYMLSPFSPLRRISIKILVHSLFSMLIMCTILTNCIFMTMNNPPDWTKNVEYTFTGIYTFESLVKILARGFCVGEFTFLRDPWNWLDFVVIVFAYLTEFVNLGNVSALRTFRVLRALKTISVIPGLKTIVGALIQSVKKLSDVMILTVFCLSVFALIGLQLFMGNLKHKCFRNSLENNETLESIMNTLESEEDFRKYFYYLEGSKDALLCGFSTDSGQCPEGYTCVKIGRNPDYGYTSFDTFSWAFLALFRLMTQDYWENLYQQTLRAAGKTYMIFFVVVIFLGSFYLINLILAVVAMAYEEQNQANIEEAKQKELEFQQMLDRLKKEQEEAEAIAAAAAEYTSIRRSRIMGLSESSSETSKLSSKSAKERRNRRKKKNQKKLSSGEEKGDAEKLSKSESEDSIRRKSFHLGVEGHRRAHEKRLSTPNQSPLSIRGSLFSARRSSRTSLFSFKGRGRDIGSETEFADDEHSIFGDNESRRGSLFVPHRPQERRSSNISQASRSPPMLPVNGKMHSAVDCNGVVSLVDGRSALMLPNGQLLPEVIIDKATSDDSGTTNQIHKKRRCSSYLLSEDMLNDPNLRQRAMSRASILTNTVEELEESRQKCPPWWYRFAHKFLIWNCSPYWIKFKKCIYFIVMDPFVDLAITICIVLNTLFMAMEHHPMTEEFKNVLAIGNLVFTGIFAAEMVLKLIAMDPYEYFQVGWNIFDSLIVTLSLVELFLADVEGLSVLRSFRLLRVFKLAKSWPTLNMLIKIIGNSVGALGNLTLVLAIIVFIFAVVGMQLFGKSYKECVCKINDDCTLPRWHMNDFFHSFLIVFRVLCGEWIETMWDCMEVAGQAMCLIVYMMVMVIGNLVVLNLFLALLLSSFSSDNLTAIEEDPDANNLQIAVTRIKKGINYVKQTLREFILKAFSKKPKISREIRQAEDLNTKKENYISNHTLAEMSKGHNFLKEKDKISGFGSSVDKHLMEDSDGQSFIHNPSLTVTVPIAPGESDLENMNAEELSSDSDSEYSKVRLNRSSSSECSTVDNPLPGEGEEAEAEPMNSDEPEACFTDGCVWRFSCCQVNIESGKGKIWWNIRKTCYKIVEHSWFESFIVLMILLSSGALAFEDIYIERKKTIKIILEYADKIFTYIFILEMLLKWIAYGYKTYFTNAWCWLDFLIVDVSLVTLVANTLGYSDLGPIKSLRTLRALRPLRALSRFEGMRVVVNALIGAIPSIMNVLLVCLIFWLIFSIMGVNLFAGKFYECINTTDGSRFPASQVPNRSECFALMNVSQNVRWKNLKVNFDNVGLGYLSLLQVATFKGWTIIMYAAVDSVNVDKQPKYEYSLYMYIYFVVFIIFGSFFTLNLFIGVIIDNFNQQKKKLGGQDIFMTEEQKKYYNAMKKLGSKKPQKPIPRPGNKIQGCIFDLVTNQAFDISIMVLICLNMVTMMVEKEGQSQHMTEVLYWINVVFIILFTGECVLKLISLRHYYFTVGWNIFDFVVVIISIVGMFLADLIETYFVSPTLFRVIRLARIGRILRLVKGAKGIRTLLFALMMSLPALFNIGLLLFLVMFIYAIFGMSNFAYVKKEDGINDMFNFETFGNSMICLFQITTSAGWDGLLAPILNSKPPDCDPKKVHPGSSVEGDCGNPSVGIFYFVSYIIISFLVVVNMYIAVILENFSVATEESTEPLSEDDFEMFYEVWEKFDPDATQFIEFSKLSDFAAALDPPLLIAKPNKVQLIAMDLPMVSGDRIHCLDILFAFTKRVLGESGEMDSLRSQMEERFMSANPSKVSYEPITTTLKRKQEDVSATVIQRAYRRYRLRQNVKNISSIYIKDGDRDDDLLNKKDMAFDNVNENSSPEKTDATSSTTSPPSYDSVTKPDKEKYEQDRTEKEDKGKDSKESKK

For `CC[C@H](C)[C@H](NC(=O)[C@H](CCCCN)NC(=O)[C@H](CCCNC(=N)N)NC(=O)[C@@H]1CSSC[C@@H]2NC(=O)[C@H](C)NC(=O)[C@H](CCCNC(=N)N)NC(=O)[C@H](CCCCN)NC(=O)[C@H](CO)NC(=O)[C@H](CC(=O)O)NC(=O)[C@@H]3CSSC[C@H](NC(=O)[C@H](CCC(=O)O)NC(=O)[C@H](CC(C)C)NC(=O)CNC(=O)[C@H](CCC(=O)O)NC(=O)[C@H](CSSC[C@H](NC(=O)[C@@H](N)Cc4ccc(O)cc4)C(=O)N[C@@H](CCC(N)=O)C(=O)N[C@@H](CCCCN)C(=O)N[C@@H](Cc4c[nH]c5ccccc45)C(=O)N[C@@H](CCSC)C(=O)N[C@@H](Cc4c[nH]c5ccccc45)C(=O)N[C@@H]([C@@H](C)O)C(=O)N3)NC2=O)C(=O)N[C@@H](CCCCN)C(=O)N[C@@H](CC(C)C)C(=O)N[C@@H](Cc2c[nH]c3ccccc23)C(=O)N1)C(=O)N[C@@H](Cc1c[nH]c2ccccc12)C(N)=O` [SEQ ID NO: 112, [Glu20;Trp29]JzTx-V(1-29)], the IC50 [1] was 1.5 nM, the “block of TTX-sensitive Nav current” value [2] was “only blocked around half of TTX-sensitive Nav current; also recorded: only partially blocked TTX-sensitive Nav current; also recorded: only partial inhibition” and the “loss in potency relative to the human clone of Nav1.7” value ([2]; TTX-sensitive current, mouse DRG neurons) was roughly 1000 fold. The “time spent lifting and/or licking the affected paw, first phase (0-5 min)” value [3] was “no effect and Neither the peptide nor the morphine positive control significantly reduced and 1 mg/kg dose of peptide may have slightly increased the pain response”, the “time spent lifting and/or licking the affected paw, second phase (5-40 min)” value [3] was “no effect; also recorded: but not the peptide significantly reduced” and the “thermal latency / thermal hyperalgesia” value [4] was “no effect”. For the same compound, the “formalin response, first or acute phase (0-5 min)” value ([5]; peptide 5.0 mg/kg s.c. 1-h pre-treatment, vs vehicle (PBS)) was “no effect”, the “formalin response, second phase (5-40 min)” value ([5]; rat, in vivo) was “did not decrease and may have actually increased; also recorded: may have actually increased the pain response” and the “% Peptide Remaining” value [6] was 100%. For the same compound, the “% Peptide Remaining” value [7] was 100%, the “plasma concentration over the in vitro hNav1.7 IC50 by PX” value ([8]; CD-1 mice) was 26 fold and the “time with measurable plasma concentrations” value ([8]; mice) was 4 h. For the same compound, the tolerability ([8]; mice) was “tolerated”, the “terminal exposure (plasma)” value ([9]; 0.1 mg/kg s.c.) was 0.0248 ± 0.00668 µM and the “terminal exposure (plasma)” value ([9]; 0.3 mg/kg s.c.) was 0.121 ± 0.0296 µM. For the same compound, the “terminal exposure (plasma)” value ([9]; 1.0 mg/kg s.c.) was 0.419 ± 0.226 µM, the “terminal exposure (plasma)” value ([9]; 5.0 mg/kg s.c.) was 4.73 ± 0.584 µM and the total fine movement [9, 14] was “no effect”. The total time rearing [9, 14] was “no effect”, the “terminal exposure (plasma)” value [10] was 0.994 ± 0.184 µM and the half-life [11] was roughly 2.08 h. It also gave a remaining at 2 h [12] of 95%, a remaining at 4 h [12] of 84% and a remaining at 6 h [12] of 75%. The remaining at 8 h [12] was 71%, the remaining at 24 h [12] was 48% and the remaining at 2 h [13] was 93%. The remaining at 4 h [13] was 91%, the remaining at 6 h [13] was 90% and the remaining at 8 h [13] was 91%. It also gave a remaining at 24 h [13] of 89%.

— patent US9636418B2 (priority 2013, dated 2017)
